Square brackets hold non-standard residues; d marks the D form. Peptide text beside a SMILES is read from it. * marks the point of attachment. ξ: configuration not given here. C19 diacid = O=C(O)CCCCCCCCCCCCCCCCCC(=O)*; C17 diacid = O=C(O)CCCCCCCCCCCCCCCC(=O)*; C16 diacid = O=C(O)CCCCCCCCCCCCCCC(=O)*; Nonadecanoyl = CCCCCCCCCCCCCCCCCCC(=O)*; Arachidoyl = CCCCCCCCCCCCCCCCCCCC(=O)*; C15 diacid = O=C(O)CCCCCCCCCCCCCC(=O)*; Heptadecanoyl = CCCCCCCCCCCCCCCCC(=O)*; Pentadecanoyl = CCCCCCCCCCCCCCC(=O)*; Palmitoyl = CCCCCCCCCCCCCCCC(=O)*; Lauroyl = CCCCCCCCCCCC(=O)*; ξR = N=C(N)NCCCC(N)C(=O)O
Experiments:
Carboxypeptidase A1 = target: T1, Carboxypeptidase A1 (Homo sapiens, UniProt P15085); test: Stability of compound assessed as carboxypeptidase A (unknown origin) mediated compound degradation by measuring fold change of half-life by RP-HPLC analysis relative to BimBH312-mer peptide; type: ADME
T1 sequence (P15085 whole entry): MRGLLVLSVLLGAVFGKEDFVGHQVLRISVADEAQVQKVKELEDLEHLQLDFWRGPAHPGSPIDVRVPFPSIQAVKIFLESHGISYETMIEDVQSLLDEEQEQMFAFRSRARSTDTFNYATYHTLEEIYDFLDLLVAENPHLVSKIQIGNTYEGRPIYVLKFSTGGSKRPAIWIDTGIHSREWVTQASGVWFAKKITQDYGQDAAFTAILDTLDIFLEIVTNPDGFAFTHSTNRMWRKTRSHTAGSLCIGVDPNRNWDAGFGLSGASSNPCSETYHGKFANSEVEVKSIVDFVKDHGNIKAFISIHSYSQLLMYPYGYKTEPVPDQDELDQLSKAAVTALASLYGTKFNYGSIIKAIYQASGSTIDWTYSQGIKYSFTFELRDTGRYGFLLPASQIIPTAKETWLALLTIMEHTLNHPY

[1] = Stability of compound assessed as Pepsin (unknown origin) mediated compound degradation by measuring fold change of half-life by HPLC analysis relative to BimBH312-mer peptide; type: ADME; settings: human
Proteinase K = test: Stability of compound assessed as Proteinase K (unknown origin) mediated compound degradation by measuring half-life by HPLC analysis; type: ADME
[2] = target: T2, Tyrosine-protein phosphatase non-receptor type 1 (Homo sapiens) (UniProt P18031); test: Inhibition of N-terminal His tagged recombinant human PTP1B expressed in Escherichia coli using pNPP as substrate assessed as substrate hydrolysis at 40 umol/L relative to control; settings: dose 40.0 µmol/L
T2 sequence (whole entry): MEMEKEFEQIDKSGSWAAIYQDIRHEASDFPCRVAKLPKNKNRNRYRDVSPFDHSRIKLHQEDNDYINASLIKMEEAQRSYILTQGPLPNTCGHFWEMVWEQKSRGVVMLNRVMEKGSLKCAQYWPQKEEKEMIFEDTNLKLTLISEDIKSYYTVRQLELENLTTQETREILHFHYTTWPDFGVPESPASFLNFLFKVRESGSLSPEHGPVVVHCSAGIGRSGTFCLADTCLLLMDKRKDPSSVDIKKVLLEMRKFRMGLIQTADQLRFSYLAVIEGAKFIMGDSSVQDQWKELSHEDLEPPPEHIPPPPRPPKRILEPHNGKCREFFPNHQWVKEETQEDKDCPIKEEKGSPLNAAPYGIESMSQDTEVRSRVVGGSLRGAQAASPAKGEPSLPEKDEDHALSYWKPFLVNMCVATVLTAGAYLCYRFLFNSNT

Pepsin = test: Stability of compound assessed as Pepsin (unknown origin) mediated compound degradation by measuring half-life by HPLC analysis; type: ADME; settings: human
Chymotrypsin [3] = target: Chymotrypsin (Homo sapiens, UniProt Q99895+P17538+P40313+Q6GPI1); test: Stability of compound assessed as chymotrypsin (unknown origin) mediated compound degradation by measuring fold change of half-life by RP-HPLC analysis relative to BimBH312-mer peptide; type: ADME, protein assay
chymotrypsin [4] = target: chymotrypsin (Homo sapiens, UniProt P17538+P40313+Q6GPI1+Q99895); test: Stability of compound assessed as chymotrypsin (unknown origin) mediated compound degradation by measuring half-life by RP-HPLC analysis; type: ADME, protein assay
carboxypeptidase A = target: T3, carboxypeptidase A (Homo sapiens, UniProt P15085); test: Stability of compound assessed as carboxypeptidase A (unknown origin) mediated compound degradation by measuring half-life by RP-HPLC analysis; type: ADME
T3 sequence (P15085 whole entry): T1 sequence (P15085 whole entry)

[5] = Stability of compound assessed as Proteinase K (unknown origin) mediated compound degradation by measuring fold change of half-life by HPLC analysis relative to BimBH312-mer peptide; type: ADME
[6] = target: T4, Tyrosine-protein phosphatase non-receptor type 1 (Homo sapiens, UniProt P18031); test: Inhibition of N-terminal His tagged recombinant human PTP1B expressed in Escherichia coli using pNPP as substrate assessed as substrate hydrolysis
T4 sequence (P18031 whole entry): T2 sequence (whole entry)

SMILES	inhibition [2]	IC50 [6]	also measured
CCCCCCCCCCCCCCCCCCC(=O)N[C@H](C(=O)N[C@@H](C)C(=O)N[C@@H](CCC(N)=O)C(=O)N[C@@H](CCC(=O)O)C(=O)N[C@@H](CC(C)C)C(=O)N[C@@H](CCCNC(=N)N)C(=O)NC(CCCNC(=N)N)C(=O)N[C@H](C(=O)NCC(=O)N[C@@H](CC(=O)O)C(=O)N[C@@H](CCC(=O)O)C(=O)N[C@@H](Cc1ccccc1)C(=O)O)[C@@H](C)CC)[C@@H](C)CC (stereo not given in full) (Nonadecanoyl-IAQELR[ξR]IGDEF-OH)	> 50%	0.437 µM	–
CC[C@H](C)[C@H](NC(=O)CCCCCCCCCCCCCCCCCC(=O)O)C(=O)N[C@@H](C)C(=O)N[C@@H](CCC(N)=O)C(=O)N[C@@H](CCC(=O)O)C(=O)N[C@@H](CC(C)C)C(=O)N[C@@H](CCCNC(=N)N)C(=O)NC(CCCNC(=N)N)C(=O)N[C@H](C(=O)NCC(=O)N[C@@H](CC(=O)O)C(=O)N[C@@H](CCC(=O)O)C(=O)N[C@@H](Cc1ccccc1)C(=O)O)[C@@H](C)CC (stereo not given in full) ({C19 diacid}-IAQELR[ξR]IGDEF-OH)	> 50%	1.27 µM	–
CCCCCCCCCCCCCCCCC(=O)N[C@H](C(=O)N[C@@H](C)C(=O)N[C@@H](CCC(N)=O)C(=O)N[C@@H](CCC(=O)O)C(=O)N[C@@H](CC(C)C)C(=O)N[C@@H](CCCNC(=N)N)C(=O)N[C@@H](CCCNC(=N)N)C(=O)N[C@H](C(=O)NCC(=O)N[C@@H](CC(=O)O)C(=O)N[C@@H](CCC(=O)O)C(=O)N[C@@H](Cc1ccccc1)C(=O)O)[C@@H](C)CC)[C@@H](C)CC (Heptadecanoyl-IAQELRRIGDEF-OH)	> 50%	2.57 µM	–
CCCCCCCCCCCCCCCC(=O)N[C@@H](CCC(=O)N[C@H](C(=O)N[C@@H](C)C(=O)N[C@H](CCC(N)=O)C(=O)N[C@@H](CCC(=O)O)C(=O)N[C@@H](CC(C)C)C(=O)N[C@@H](CCCNC(=N)N)C(=O)N[C@@H](CCCNC(=N)N)C(=O)N[C@H](C(=O)NCC(=O)N[C@@H](CC(=O)O)C(=O)N[C@@H](CCC(=O)O)C(=O)N[C@@H](Cc1ccccc1)C(=O)O)[C@@H](C)CC)[C@@H](C)CC)C(=O)O	> 50%	4.35 µM	–
CCCCCCCCCCCC(=O)N[C@H](C(=O)N[C@@H](C)C(=O)N[C@@H](CCC(N)=O)C(=O)N[C@@H](CCC(=O)O)C(=O)N[C@@H](CC(C)C)C(=O)N[C@@H](CCCNC(=N)N)C(=O)N[C@@H](CCCNC(=N)N)C(=O)N[C@H](C(=O)NCC(=O)N[C@@H](CC(=O)O)C(=O)N[C@@H](CCC(=O)O)C(=O)N[C@@H](Cc1ccccc1)C(=O)O)[C@@H](C)CC)[C@@H](C)CC (Lauroyl-IAQELRRIGDEF-OH)	> 50%	2.78 µM	–

Continued by falling IC50 [6], values first:

inhibition [2]	IC50 [6]	SMILES	also measured
> 50%	3.89 µM	CCCCCCCCCCCCCCCCCCCC(=O)N[C@H](C(=O)N[C@@H](C)C(=O)N[C@@H](CCC(N)=O)C(=O)N[C@@H](CCC(=O)O)C(=O)N[C@@H](CC(C)C)C(=O)N[C@@H](CCCNC(=N)N)C(=O)NC(CCCNC(=N)N)C(=O)N[C@H](C(=O)NCC(=O)N[C@@H](CC(=O)O)C(=O)N[C@@H](CCC(=O)O)C(=O)N[C@@H](Cc1ccccc1)C(=O)O)[C@@H](C)CC)[C@@H](C)CC (stereo not given in full) (Arachidoyl-IAQELR[ξR]IGDEF-OH)	–
> 50%	2.88 µM	CC[C@H](C)[C@H](NC(=O)CCCCCCCCCCCCCCC(=O)O)C(=O)N[C@@H](C)C(=O)N[C@@H](CCC(N)=O)C(=O)N[C@@H](CCC(=O)O)C(=O)N[C@@H](CC(C)C)C(=O)N[C@@H](CCCNC(=N)N)C(=O)N[C@@H](CCCNC(=N)N)C(=O)N[C@H](C(=O)NCC(=O)N[C@@H](CC(=O)O)C(=O)N[C@@H](CCC(=O)O)C(=O)N[C@@H](Cc1ccccc1)C(=O)O)[C@@H](C)CC ({C16 diacid}-IAQELRRIGDEF-OH)	–
> 50%	1.66 µM	CCCCCCCCCCCCCCC(=O)N[C@H](C(=O)N[C@@H](C)C(=O)N[C@@H](CCC(N)=O)C(=O)N[C@@H](CCC(=O)O)C(=O)N[C@@H](CC(C)C)C(=O)N[C@@H](CCCNC(=N)N)C(=O)N[C@@H](CCCNC(=N)N)C(=O)N[C@H](C(=O)NCC(=O)N[C@@H](CC(=O)O)C(=O)N[C@@H](CCC(=O)O)C(=O)N[C@@H](Cc1ccccc1)C(=O)O)[C@@H](C)CC)[C@@H](C)CC (Pentadecanoyl-IAQELRRIGDEF-OH)	–
> 50%	1.54 µM	CC[C@H](C)[C@H](NC(=O)CCCCCCCCCCCCCC(=O)O)C(=O)N[C@@H](C)C(=O)N[C@@H](CCC(N)=O)C(=O)N[C@@H](CCC(=O)O)C(=O)N[C@@H](CC(C)C)C(=O)N[C@@H](CCCNC(=N)N)C(=O)N[C@@H](CCCNC(=N)N)C(=O)N[C@H](C(=O)NCC(=O)N[C@@H](CC(=O)O)C(=O)N[C@@H](CCC(=O)O)C(=O)N[C@@H](Cc1ccccc1)C(=O)O)[C@@H](C)CC ({C15 diacid}-IAQELRRIGDEF-OH)	–
> 50%	1.36 µM	CC[C@H](C)[C@H](NC(=O)CCCCCCCCCCCCCCCC(=O)O)C(=O)N[C@@H](C)C(=O)N[C@@H](CCC(N)=O)C(=O)N[C@@H](CCC(=O)O)C(=O)N[C@@H](CC(C)C)C(=O)N[C@@H](CCCNC(=N)N)C(=O)NC(CCCNC(=N)N)C(=O)N[C@H](C(=O)NCC(=O)N[C@@H](CC(=O)O)C(=O)N[C@@H](CCC(=O)O)C(=O)N[C@@H](Cc1ccccc1)C(=O)O)[C@@H](C)CC (stereo not given in full) ({C17 diacid}-IAQELR[ξR]IGDEF-OH)	–
> 50%	0.96 µM	CCCCCCCCCCCCCCCC(=O)N[C@H](C(=O)N[C@@H](C)C(=O)N[C@@H](CCC(N)=O)C(=O)N[C@@H](CCC(=O)O)C(=O)N[C@@H](CC(C)C)C(=O)N[C@@H](CCCNC(=N)N)C(=O)N[C@@H](CCCNC(=N)N)C(=O)N[C@H](C(=O)NCC(=O)N[C@@H](CC(=O)O)C(=O)N[C@@H](CCC(=O)O)C(=O)N[C@@H](Cc1ccccc1)C(=O)O)[C@@H](C)CC)[C@@H](C)CC (Palmitoyl-IAQELRRIGDEF-OH)	fold change (FC) (Carboxypeptidase A1): 99.7; fold change (FC) [1]: 122.7; half-life (Proteinase K): 2.82 h; half-life (Pepsin): 2.7 h; fold change (FC) (Chymotrypsin [3]): 13; half-life (chymotrypsin [4]): 0.56 h; half-life (carboxypeptidase A): 3.19 h; fold change (FC) [5]: 56.4

From ChEMBL document CHEMBL5316338, “Discovery of Novel PTP1B Inhibitors with Once-Weekly Therapeutic Potential for Type 2 Diabetes: Design, Synthesis, and In Vitro and In Vivo Investigations of BimBH3 Peptide Analogues” (J Med Chem, 2023)
